The target of series [1] is T1, human MATE1 (Homo sapiens, UniProt Q96FL8).
T1 sequence (Q96FL8 1-570): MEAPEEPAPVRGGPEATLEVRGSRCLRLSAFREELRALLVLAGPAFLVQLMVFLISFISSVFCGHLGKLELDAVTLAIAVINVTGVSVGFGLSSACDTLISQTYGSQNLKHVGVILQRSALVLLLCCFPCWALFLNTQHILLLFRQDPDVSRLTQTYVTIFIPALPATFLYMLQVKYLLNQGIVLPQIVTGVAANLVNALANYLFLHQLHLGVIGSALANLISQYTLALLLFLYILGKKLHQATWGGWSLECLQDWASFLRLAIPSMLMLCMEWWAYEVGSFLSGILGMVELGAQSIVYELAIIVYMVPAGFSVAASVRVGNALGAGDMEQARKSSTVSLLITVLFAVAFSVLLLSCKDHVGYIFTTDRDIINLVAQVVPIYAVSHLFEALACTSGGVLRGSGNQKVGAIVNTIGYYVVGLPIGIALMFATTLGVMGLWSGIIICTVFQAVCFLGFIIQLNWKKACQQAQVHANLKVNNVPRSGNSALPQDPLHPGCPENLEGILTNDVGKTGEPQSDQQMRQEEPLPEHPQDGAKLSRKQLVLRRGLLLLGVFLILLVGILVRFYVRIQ
The experiment in a line: cell-based.

Series [2] has as its target T2, human (h) MATE1 (Homo sapiens, UniProt Q96FL8).
T2 construct: host or cells: HEK293 (Flp-In system, pcDNA5/FRT vector)
T2 sequence (Q96FL8 1-570): T1 sequence (Q96FL8 1-570)
The experiment in a line: Uptake of [14C] TEA and [14C] metformin in HEK293 cells overexpressing human MATE1 after preincubation with dofetilide. It counts as cell-based. Conditions: dofetilide 1-50 µM, preincubation 15 min; TEA 2 µM, metformin 5 µM. As for the experimental part:
In brief, cells were seeded in 12- or 24-well plates in phenol red-free DMEM containing 10% FBS, and were incubated at 37 °C for 24 h. […] Uptake studies were performed with [^14C] […]
overexpressing mouse (m) OCT2, OCTN1, or MATE1. Relative uptake is expressed as percentage change compared with empty vector controls (n = 3). (B) Uptake of [14C] TEA (2 µM) and [14C] metformin (5 µM) in HEK293 cells […]
followed by the co-incubation with TEA and metformin for 15 min. Data represent the mean ± SEM and are expressed as a percentage over vector control. (C) Gene expression of MATE1 in the kidney isolated from untreated male and female wild-type mice (n = 4 per group). (D) Protein expression of MATE1 in the heart isolated from untreated wild-type (WT) and MATE1-/- mice (n=3). Immunohistochemical detection of MATE1 (bottom panels) in the wild-type mouse heart (E) and kidney (F). Tissue staining lacking the primary antibody was performed as a negative control for each tissue group (top panels). Representative images were taken at x40 magnification. (G) […]
(also on this page, place not known: hMATE1 (% Control) mOCT2mOCTN1mMA TE 1 No PrimaryMATE1 Relative Uptake in of) […]

The target in series [3] is T3, MATE1 (SLC47A1) (Homo sapiens, UniProt Q96FL8).
T3 sequence (Q96FL8 1-570): T1 sequence (Q96FL8 1-570)
The experiment in a line: in vitro. Conditions: HEK293 cells overexpressing human MATE1.

Series [4] has as its system cardiomyocytes isolated from wild-type or MATE1-deficient mice. The experiment in a line: Ex vivo cardiomyocyte uptake of [3H] dofetilide. It is filed as cell-based, mouse. Conditions: [3H] dofetilide 2 µM; cardiomyocytes from MATE1-/- vs wild-type mice. The protocol:
Briefly, hearts from wild-type and MATE1-deficient mice were quickly removed and perfused on a Langendorff’s apparatus at 37 °C. After a 5 min perfusion with Ca^2+-free tyrode solution containing (in mM): 140 NaCl, 5.4 KCl 0.5 MgCl2, 10 Hepes and 5.6 glucose; pH 7.3, the perfusate was then switched to tyrode solution containing Liberase Blendzymes (Roche, Applied Science, IN) for digestion of the connective tissue. After 20 min of digestion, cardiomyocytes were isolated from dissected and triturated hearts and stabilized in BSA containing tyrode solution.
Isolated cardiomyocytes were then plated in 12 well plates containing Ca^2+ and Mg^2+ free Hank’s balanced salt solution.

The conditions of series [5]: humans; cited from earlier work.

In turn, `CC(=O)N1CCN(c2ccc(OCC3COC(Cn4ccnc4)(c4ccc(Cl)cc4Cl)O3)cc2)CC1` (stereo not shown) [Ketoconazole, ketoconazole] returned an IC50 in series [1] of 170 nM.
Still for that read-out and setting: the figure for `COc1cc2c(Nc3ccc(Br)cc3F)ncnc2cc1OCC1CCN(C)CC1` [Vandetanib, vandetanib] is 130 nM.
Still for that read-out and setting: next, `CCC(C)n1ncn(-c2ccc(N3CCN(c4ccc(OCC5COC(Cn6cncn6)(c6ccc(Cl)cc6Cl)O5)cc4)CC3)cc2)c1=O` (stereo not shown) [Itraconazole, itraconazole]: 320 nM.
As for `CN(CCOc1ccc(NS(C)(=O)=O)cc1)CCc1ccc(NS(C)(=O)=O)cc1` [dofetilide], the “inhibition of MATE1-dependent transport of TEA and metformin” value in series [2] is “dose-dependently inhibit”. In addition, the Km at 2 min in series [3] turned out to be 6.72 ± 1.71 µM. The “accumulation of dofetilide in cardiomyocytes” value in series [4] is on record as “significantly increased in the absence of MATE1”. Besides, the “higher dofetilide plasma concentrations in females than males” value in series [5] was 14–22%.
